Substitutions are numbered along the chain they refer to. Like-named read-outs stand apart in the source and are kept apart here.
How the values were obtained:
TbAQP2 = biological target: T1, TbAQP2 (Trypanosoma brucei brucei, UniProt Q6ZXT3)
T1 sequence (Q6ZXT3 1-312): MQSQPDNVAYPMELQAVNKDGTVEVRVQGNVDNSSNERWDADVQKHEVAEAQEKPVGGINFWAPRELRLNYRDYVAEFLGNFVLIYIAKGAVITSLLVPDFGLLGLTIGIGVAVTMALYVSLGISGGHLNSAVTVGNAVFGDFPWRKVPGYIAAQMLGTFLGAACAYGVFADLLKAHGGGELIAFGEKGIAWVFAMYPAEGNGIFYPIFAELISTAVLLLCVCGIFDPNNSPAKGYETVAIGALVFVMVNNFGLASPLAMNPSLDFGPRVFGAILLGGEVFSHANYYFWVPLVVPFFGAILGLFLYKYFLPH

TbAQP2 Asp265Ala = TbAQP2 Asp265Ala (Trypanosoma brucei brucei, UniProt Q6ZXT3, D265A); assay: cell-based; settings: read-out: IC50, pentamidine inhibition of TbAQP2 Asp265Ala
TbAQP2 Leu264Arg = biological target: T2, TbAQP2 Leu264Arg (Trypanosoma brucei brucei, UniProt Q6ZXT3, L264R); format: cell-based
T2 sequence (Q6ZXT3 1-312 L264R): T1 sequence (Q6ZXT3 1-312) with L264R

Structure (SMILES): N=CN [formamidine]
- permeability of TbAQP2 for small cations (TbAQP2; not told): impermeable

Structure (SMILES): N=C(N)c1ccc(OCCCCCOc2ccc(C(=N)N)cc2)cc1 [pentamidine]
- IC50 (TbAQP2 Asp265Ala; pH 2.5): 5.8 µM
- IC50 (TbAQP2 Asp265Ala; pH 7.2): 4.5 µM
- inhibition of TbAQP2 Leu264Arg (TbAQP2 Leu264Arg): failed to inhibit

Structure (SMILES): NCC(O)CO (centres unmarked) [3-aminopropane-1,2-diol]
- rate of passage through TbAQP2 relative to glycerol (TbAQP2; pH 9.2): two thirds the rate of glycerol
